Data taken from patent US20110105397A1, “METHOD FOR TREATING HEART FAILURE WITH STRESSCOPIN-LIKE PEPTIDES” (priority 2009, published 2011).

Assays:
m-CRHR2b = m-CRHR2b (Mus musculus, UniProt Q60748); settings: m-CRHR2b transfected CHO-K1 cells (Lewis et al., 2001); cited from earlier work
h-CRHR1 = molecular target: T1, h-CRHR1 (Homo sapiens, UniProt P34998); settings: h-CRHR1 transfected HEK-293 cells, approximated values from concentration response curves (Hsu et al., 2001); cited from earlier work
T1 sequence (P34998 24-415): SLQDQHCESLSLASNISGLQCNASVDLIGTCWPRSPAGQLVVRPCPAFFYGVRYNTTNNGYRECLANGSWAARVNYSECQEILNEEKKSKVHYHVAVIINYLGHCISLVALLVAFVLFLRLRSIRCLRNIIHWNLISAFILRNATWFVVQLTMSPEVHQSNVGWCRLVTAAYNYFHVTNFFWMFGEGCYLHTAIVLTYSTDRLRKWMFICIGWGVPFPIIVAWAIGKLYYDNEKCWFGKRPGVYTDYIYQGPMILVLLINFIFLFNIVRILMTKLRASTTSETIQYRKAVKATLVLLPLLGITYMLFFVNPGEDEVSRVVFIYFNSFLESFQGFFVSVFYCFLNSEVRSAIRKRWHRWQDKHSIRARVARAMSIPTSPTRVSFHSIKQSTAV

male dogs = assay: GLP cardiovascular safety study in male dogs; assay type: in vivo, dog
Description: The NOAEL of 33.3 ng/kg/min was determined in a GLP cardiovascular safety study in male dogs, which is considered to be the most relevant and sensitive species for cardiovascular drugs.
A NOAEL of 33.3 ng/kg/min was determined in a GLP cardiovascular safety study in male dogs, which is considered to be the most relevant and sensitive species for cardiovascular drugs. […] Based on these values a starting dose of 0.1 ng/kg/min was selected.

[1] = system: dogs with advanced heart failure; assay: LV pressure-volume relationship in dogs with advanced heart failure, 120-min infusion; assay type: in vivo, dog; settings: HF dogs
Description: In a subsequent study baseline hemodynamic, ventriculographic, echocardiographic and LV pressure-volume was measured, before each dog was intravenously administered a continuous, 4.3 ng/kg/min infusion of h-SCP (SEQ ID NO:1) for 120 min. At the end of the 120-min infusion, complete hemodynamic, ventriculographic, echocardiographic, and LV pressure-volume measurements were repeated. Lead II on the electrocardiogram was monitored throughout the study for development of de novo ventricular arrhythmias. The dosing solutions were not adjusted or corrected for peptide content since the peptide content of the test article used in these studies fell between the customary 85-90% limit where this correction is not required. […]
All hemodynamic measurements were made during left and right heart catheterizations in anaesthelized dogs at each specified study time point. Aortic and LV pressures were measured using cathetenip micromanometers (Millar Instruments, Houston, Tex.), and LV end-diastolic pressure (LVEDP) was measured from the LV pressure waveform. […] Ventriculography were recorded on digital media at 30 frames per second during a power injection of 15 mL of contrast material (Conray; Mallinckrodt Inc., St. Louis, Mo.). […] The end-systolic and end-diastolic pressure-volume points were determined for beats at end-expiration in the usual fashion. […]

healthy subjects = assay: Human hemodynamics, healthy subjects, 24- and 72-hour continuous IV infusion, 54 ng/kg/min; assay type: in vivo
Description: Efficacy was based on the pharmacodynamic evaluation of hemodynamics, which was monitored using the noninvasive technique of impedance cardiography. Heart rate values were collected by impedance cardiography measurements. It was noted that the heart rate of subjects receiving placebo were elevated on the day of their infusions, at baseline before the infusion, and for the first 3 to 4 hours after the infusions were started (FIG. 17). Based on this observation, it appeared that there was a potential effect of period on the observed heart rate.
Healthy subjects who received placebo had heart rates that decreased compared with baseline during the infusion.

in vivo = settings: dog, iv
Description: The findings described above were further examined in a study, in which h-SCP (SEQ ID NO:1) was infused over a 30-minute period at the same total doses that were administered by bolus as described above with the results presented in Table 17 and FIGS. 11A & B. As in the case of bolus dosing h-SCP (SEQ ID NO:1) elicited dose- (infusion-) dependent changes in blood pressure, left ventricular systolic and diastolic function, and heart rate. However, at the lower range of the dose- (infusion-) response curve there was a pronounced lessening in the positive chronotropic and blood pressure response with marked and significant increase in cardiac function measured as increased CO and LVEF. […] The corresponding plasma concentration of h-SCP (SEQ ID NO:1) was 4,577 pg/mL.
A sandwich immunoassay was developed using an affinity purified goat polyclonal antibody, specific to h-SCP that was pre-coated onto a microplate with integrated electrodes. h-SCP molecules present in the sample will bind to the capture polyclonal antibody coated on the plate. After washing away any unbound substances, a sulfo-tagged mouse monoclonal anti-h-SCP antibody was added. This conjugated antibody will bind to the h-SCP molecules captured on the microplate and the quantity of analyte was determined by electrochemiluminescence. The amount of signal generated is directly proportional to the h-SCP concentration in the sample or standard. The standard curve range is 3.125-1600 pg/mL with a quantifiable range from 10-800 pg/mL. A sample volume of 25 μL (in duplicate) is required for this assay. This immunoassay is specific for human and dog stresscopin and human urocortin III (h-UCN3). […] After completion of the analysis, based on a comparison of reference standards between the ELISA and HPLC method, a correction factor of 1.57 was applied to all bioanalytical data.

m-CRHR2b, sequence (Q60748 1-431 isoform Q60748-2): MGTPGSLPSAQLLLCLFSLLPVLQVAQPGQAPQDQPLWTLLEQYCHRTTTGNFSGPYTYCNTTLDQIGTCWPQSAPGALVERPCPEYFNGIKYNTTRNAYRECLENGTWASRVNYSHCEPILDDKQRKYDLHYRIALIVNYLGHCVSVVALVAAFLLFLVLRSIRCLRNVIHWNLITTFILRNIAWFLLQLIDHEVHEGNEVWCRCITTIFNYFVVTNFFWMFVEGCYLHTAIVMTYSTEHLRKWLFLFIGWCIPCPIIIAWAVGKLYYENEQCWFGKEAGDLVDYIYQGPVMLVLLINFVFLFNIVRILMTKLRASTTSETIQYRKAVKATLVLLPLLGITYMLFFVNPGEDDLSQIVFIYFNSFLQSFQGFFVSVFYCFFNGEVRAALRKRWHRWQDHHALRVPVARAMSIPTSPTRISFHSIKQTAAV

CC[C@H](C)[C@H](NC(=O)[C@H](CO)NC(=O)[C@H](CC(C)C)NC(=O)[C@@H]1CCCN1C(=O)[C@@H]1CCCN1C(=O)[C@H](CC(=O)O)NC(=O)[C@@H](N)CC(=O)O)C(=O)N[C@@H](CC(=O)O)C(=O)N[C@@H](CC(C)C)C(=O)N[C@H](C(=O)N[C@@H](Cc1ccccc1)C(=O)N[C@@H](Cc1c[nH]cn1)C(=O)N[C@@H](CC(C)C)C(=O)N[C@@H](CC(C)C)C(=O)N[C@@H](CCCNC(=N)N)C(=O)N[C@H](C(=O)N[C@@H](CC(C)C)C(=O)N[C@@H](CC(C)C)C(=O)N[C@@H](CCC(=O)O)C(=O)N[C@@H](CC(C)C)C(=O)N[C@@H](C)C(=O)N[C@@H](CCCNC(=N)N)C(=O)N[C@H](C(=O)N[C@@H](CCC(N)=O)C(=O)N[C@@H](CO)C(=O)N[C@@H](CCC(N)=O)C(=O)N[C@@H](CCCNC(=N)N)C(=O)N[C@@H](CCC(=O)O)C(=O)N[C@@H](CCCNC(=N)N)C(=O)N[C@@H](C)C(=O)N[C@@H](CCC(=O)O)C(=O)N[C@@H](CCC(N)=O)C(=O)N[C@@H](CC(N)=O)C(=O)N[C@@H](CCCNC(=N)N)C(=O)N[C@H](C(=O)N[C@H](C(=O)N[C@@H](Cc1ccccc1)C(=O)N[C@@H](CC(=O)O)C(=O)N[C@@H](CO)C(=O)N[C@H](C(N)=O)C(C)C)[C@@H](C)CC)[C@@H](C)CC)[C@@H](C)O)[C@@H](C)O)[C@@H](C)O [SEQ ID NO: 114, DDPPLSIDLTFHLLRTLLELARTQSQRERAEQNRIIFDSV-NH2]
Published pA50 (m-CRHR2b): 10.06^2

H-HPGSRIVLSLDVPIGLLQILLEQARARAAREQATTNARILARV-NH2 [SEQ ID NO: 117, HPGSRIVLSLDVPIGLLQILLEQARARAAREQATTNARILARV-NH2, reference compound]
Published pA50 (h-CRHR1): >7^3

H-TKFTLSLDVPTNIMNLLFNIAKAKNLRAQAAANAHLMAQI-NH2 [SEQ ID NO: 1, TKFTLSLDVPTNIMNLLFNIAKAKNLRAQAAANAHLMAQI-NH2]
upper limit of plasma concentration (male dogs; dog, in vivo): 12.0 ng/mL | safety margin (male dogs; expected Cpss at 0.1 ng/kg/min versus upper limit in dogs): 1,390 fold | NOAEL (male dogs; male dogs): 33.3 ng/kg/min | absolute value of EDPVR slope ([1]; 4.3 ng/kg/min infusion for 120 min (untreated 0.257)): 0.128 | slope of the ESPVR ([1]; 4.3 ng/kg/min infusion for 120 min (untreated 1.38±0.26)): 2.26±0.46 | time in which the increase in heart rate occurred (healthy subjects): ≤ 15 min | level at 0.5 h (in vivo; 22 ng/kg/min): 0.62 ng/mL | level at time molar at 0.5 h (in vivo; 22 ng/kg/min): 0.142 nM | level at 0.5 h (in vivo; 43 ng/kg/min): 4.58 ng/mL | level at time molar at 0.5 h (in vivo; 43 ng/kg/min): 1.05 nM | level at 0.5 h (in vivo; 86 ng/kg/min): 5.14 ng/mL | level at time molar at 0.5 h (in vivo; 86 ng/kg/min): 1.18 nM | level at 0.5 h (in vivo; 146 ng/kg/min): 23.6 ng/mL | level at time molar at 0.5 h (in vivo; 146 ng/kg/min): 5.41 nM | level at 0.5 h (in vivo; 437 ng/kg/min): 67.1 ng/mL | level at time molar at 0.5 h (in vivo; 437 ng/kg/min): 15.4 nM
